This is an account of results in US20040072746A1, “Inhibitors of monocarboxylate transport” (priority 2001, published 2004).

One assay addresses T1, human MCT3 (Homo sapiens, UniProt O95907).
T1 construct: the full length open reading frame of human MCT3 was subcloned into the S. cerevisiae expression plasmid pACES14; made in house; host or cells: Saccharomyces cerevisiae BY4742 (jen1 deletion), membrane preparation; plasmid pACES14-hMCT3
T1 sequence (O95907 1-504): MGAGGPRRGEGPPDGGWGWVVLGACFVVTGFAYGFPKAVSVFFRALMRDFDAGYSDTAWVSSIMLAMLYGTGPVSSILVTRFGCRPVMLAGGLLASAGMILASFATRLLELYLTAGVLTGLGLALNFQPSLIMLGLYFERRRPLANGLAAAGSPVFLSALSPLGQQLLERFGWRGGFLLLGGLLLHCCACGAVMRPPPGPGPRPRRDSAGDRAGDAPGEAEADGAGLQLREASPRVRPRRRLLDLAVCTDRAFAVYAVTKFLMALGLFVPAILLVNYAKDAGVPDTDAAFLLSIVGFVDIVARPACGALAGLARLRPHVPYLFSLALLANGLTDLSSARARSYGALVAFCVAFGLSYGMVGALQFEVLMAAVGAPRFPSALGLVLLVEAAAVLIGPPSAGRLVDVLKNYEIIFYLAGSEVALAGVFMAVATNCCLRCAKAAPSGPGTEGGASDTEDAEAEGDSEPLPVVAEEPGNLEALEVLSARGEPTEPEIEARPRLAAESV
The assay is described as follows: MCT filter binding assay, yeast membranes, radioligand specific binding. The settings on record: ~2.5 nM radioligand. Here is the method: (§1) For yeast cells transformed with expression plasmids containing the human MCT 1-4 ORFs the ability of membrane preparations to bind radioligand was determined using a single ligand concentration/multi protein concentration binding assay. This generated an estimate of the amount of active binding protein present in each membrane preparation. The ligand concentration used will give an estimate of Bmax that is approximately 90% of the true value. 10 μl of ligand A, B or C that had been diluted 50 fold with assay buffer (50 mM HEPES, 0.1 mM EDTA, 0.15 M NaCl, pH 7.5, 0.5% BSA) was dispensed into wells of a polypropylene microtitre plate. This gives a final radiolabelled ligand concentration of ˜2.5 nM. […] The membranes were diluted to give a known amount/180 μl assay buffer. This is typically in the […] range. For the membranes with high binding site number a more dilute membrane preparation should be added. 180 μl of each membrane solution was then added to each well and incubated at 2 hours at room temperature with shaking. The membranes were harvested onto GF-B filter plates and washed with assay buffer without BSA, dried, scintillant added and counts detected using the relevant program for each ligand on a Packard Top Count plate reader.

The target in the next assay is T2, human MCT4 (Homo sapiens, UniProt O15427).
T2 construct: from the full length copy and subcloned into the S. cerevisiae expression plasmid pACES14; made in house; host or cells: Saccharomyces cerevisiae BY4742 (jen1 deletion), membrane preparation; plasmid pACES14-hMCT4
T2 sequence (O15427 1-465): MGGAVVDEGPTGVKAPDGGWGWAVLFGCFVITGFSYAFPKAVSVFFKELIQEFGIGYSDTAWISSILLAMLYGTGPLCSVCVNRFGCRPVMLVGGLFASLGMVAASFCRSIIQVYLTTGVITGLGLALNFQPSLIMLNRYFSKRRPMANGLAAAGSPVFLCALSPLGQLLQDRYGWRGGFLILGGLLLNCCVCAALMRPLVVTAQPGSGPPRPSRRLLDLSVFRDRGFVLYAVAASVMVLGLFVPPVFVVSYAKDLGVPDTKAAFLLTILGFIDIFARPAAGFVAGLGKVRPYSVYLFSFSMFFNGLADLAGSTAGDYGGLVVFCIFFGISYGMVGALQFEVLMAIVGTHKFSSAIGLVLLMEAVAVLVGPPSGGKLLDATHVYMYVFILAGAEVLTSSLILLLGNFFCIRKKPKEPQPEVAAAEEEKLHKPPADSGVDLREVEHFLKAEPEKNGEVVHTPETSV
The assay is described as above. The settings on record: ~2.5 nM radioligand. Here is the method: as §1

With `CC(C)Cc1nn(C)c(=O)c2c(SCCCO)n(Cc3ccccc3[125I])cc12` [Ligand A, 2,6-Dihydro-7-[(3-hydroxypropyl)thio]-6-[(2-[^125I]iodophenyl)methyl]-2-methyl-4-(2-methylpropyl)-1H-pyrrolo[3,4-d]pyridazin-1-one], the “Specific binding (cpm) Average” value at human MCT3 (MCT3 (2 ug)) was 0 cpm; on human MCT3 (MCT3 (20 ug)) it was 0 cpm; on human MCT4 (MCT4 (2 ug)), 405 cpm; on human MCT4 (MCT4 (20 ug)) it was 872 cpm.
